Results as given in patent US20260176266A1, “PIPERIDINOPYRIMIDINE DERIVATIVE, PREPARATION METHOD THEREFOR AND USE THEREOF IN MEDICINE” (TUOJIE BIOTECH (SHANGHAI) CO., LTD., priority 2022, published 2026).

Experiments:
[1] = target: CDK9/Cyclin T1 (Homo sapiens, UniProt P50750); assay: ADP-Glo kinase assay, CDK9; assay type: biochemical; details: 15.3 nM CDK9/Cyclin T1, 60 μM ATP (Km), PDKtide, 120 min; read-out: inhibitory activity (IC50, nM) CDK9
Protocol: The ADP-Glo kinase assay was used for testing the activity of CDKs. The compounds were diluted in 384-well plates using Echo. The starting concentration was 10 μM and was 3-fold diluted to obtain 10 concentration points, each tested in duplicate, and the final concentration of DMSO in the assay system was 1%. CDK solutions (the final concentrations were 16.5 nM CDK1/CyclinB, 1 nM CDK2/CyclinE1, 16.3 nM CDK4/CyclinD1, 11.5 nM CDK5/p25, 15.7 nM CDK6/CyclinD3, 80 nM CDK7/Cyclin H/MAT1, 15.3 nM CDK9/Cyclin T1, and 150 nM CDK12/CyclinK) prepared in assay buffer were added at 2.5 μL, and the enzymes and compounds were pre-incubated at room temperature for 10 min. ATP (the concentration was Km) & substrate solutions (20 μM ATP & 0.1 mg/mL Histone H1 Protein for CDK1/CyclinB, 15 μM ATP & 0.1 mg/mL Histone H1 Protein for CDK2/CyclinE1, 200 μM ATP & 0.2 mg/mL DYRKtide peptide for CDK4/CyclinD1, 10 μM ATP & 0.1 mg/mL Histone H1 Protein for CDK5/p25, 200 μM ATP & 0.1 mg/mL Histone H1 Protein for CDK6/CyclinD3, 70 μM ATP & 0.2 mg/mL MBP for CDK7/Cyclin H/MAT1, 60 μM ATP & 0.2 mg/mL PDKtide for CDK9/Cyclin T1, and 20 μM ATP & 80 μM pS7-CTD peptide for CDK12/CyclinK) prepared in assay buffer were added at 2.5 μL. […] Readings were taken using an Envision multimode microplate reader. Data were processed using GraphPad Prism 8, and IC50 was calculated. […]

[2] = tested on: HCC1806 breast cancer cells; assay: Inhibitory activity against tumor cells, CellTiter-Glo: HCC1806; assay type: cell-based; details: Homo sapiens, 168 h, HCC1806, 7 days treatment
Protocol: (§1) MCF7 (ATCC #HTB-22) and T47D (ATCC #HTB-133) breast cancer cells and PANC-1 (ATCC #CRL-1469) pancreatic cancer cells were purchased from ATCC. MDA-MB-231 (Cobioer #CBP60382), HCC1806 (Cobioer #CBP60373), and MDA-MB-468 (Cobioer #CBP60387) breast cancer cells, HCT-116 (Cobioer #CBP60028) colorectal cancer cells, and OCI-AML-3 (Cobioer #CBP60817) and MV-4-11 (Cobioer #CBP60522) leukemia cells were purchased from Nanjing Cobioer Biosciences Co., Ltd.
(§2) OCI-AML-3 was cultured in RPMI 1640 medium with 20% FBS; HCC1806 and T47D were cultured in RPMI 1640 medium with 10% FBS; MCF7, MDA-MB-231, MDA-MB-468, and PANC-1 were cultured in DMEM medium with 10% FBS; MV-4-11 was cultured in IMDM medium with 20% FBS; HCT-116 was cultured in MC′5A medium with 10% FBS.
(§3) Palbociclib-resistant cells were constructed on MCF7 parent cells, designated MCF7 Palbo-R, and the culture conditions were consistent with those of the parent cells. All tumor cells were cultured in a cell incubator at 37° C. with 5% CO2. The cells were seeded at corresponding cell densities (600 cells/well for MDA-MB-231; 500 cells/well for MDA-MB-468, PANC-1, and HCT-116; 200 cells/well for MCF7 and HCC1806; 800 cells/well for MCF7 Palbo-R; 3000 cells/well for OCI-AML-3 and MV-4-11) in 384-well plates and cultured overnight in the incubator. On the second day, the cells were treated with compounds. The maximum compound concentration was 10 μM and was 3-fold diluted to obtain 9 concentrations, each tested in duplicate, and the final concentration of DMSO was 0.1%. The cells continued to be cultured in the incubator, with MDA-MB-231, PANC-1, MDA-MB-468, OCI-AML-3, and MV-4-11 being treated with drugs for 5 days and HCC1806, MCF7, MCF7 Palbo-R, and HCT116 being treated with drugs for 7 days. Cell viability was tested using the Celltiter Glo assay kit (Promega), and the testing method was consistent with the operational method provided by the kit. Readings were taken using an Envision multimode microplate reader. Data were processed using GraphPad Prism 8, and IC50 was calculated. […]

[3] = tested on: MCF7 Palbo-R (palbociclib-resistant cells constructed on MCF7); assay: Inhibitory activity against tumor cells, CellTiter-Glo: MCF7 Palbo-R; assay type: cell-based; details: Homo sapiens, 168 h, 7 days treatment
Protocol: as §1, §2, §3

[4] = target: CDK2/CyclinE1 (Homo sapiens, UniProt P24941); assay: ADP-Glo kinase assay, CDK2; assay type: biochemical; details: 1 nM CDK2/CyclinE1, 15 μM ATP (Km), Histone H1, 60 min; read-out: inhibitory activity (IC50, nM) CDK2
Protocol: (§4) The ADP-Glo kinase assay was used for testing the activity of CDKs. The compounds were diluted in 384-well plates using Echo. The starting concentration was 10 μM and was 3-fold diluted to obtain 10 concentration points, each tested in duplicate, and the final concentration of DMSO in the assay system was 1%. CDK solutions (the final concentrations were 16.5 nM CDK1/CyclinB, 1 nM CDK2/CyclinE1, 16.3 nM CDK4/CyclinD1, 11.5 nM CDK5/p25, 15.7 nM CDK6/CyclinD3, 80 nM CDK7/Cyclin H/MAT1, 15.3 nM CDK9/Cyclin T1, and 150 nM CDK12/CyclinK) prepared in assay buffer were added at 2.5 μL, and the enzymes and compounds were pre-incubated at room temperature for 10 min. ATP (the concentration was Km) & substrate solutions (20 μM ATP & 0.1 mg/mL Histone H1 Protein for CDK1/CyclinB, 15 μM ATP & 0.1 mg/mL Histone H1 Protein for CDK2/CyclinE1, 200 μM ATP & 0.2 mg/mL DYRKtide peptide for CDK4/CyclinD1, 10 μM ATP & 0.1 mg/mL Histone H1 Protein for CDK5/p25, 200 μM ATP & 0.1 mg/mL Histone H1 Protein for CDK6/CyclinD3, 70 μM ATP & 0.2 mg/mL MBP for CDK7/Cyclin H/MAT1, 60 μM ATP & 0.2 mg/mL PDKtide for CDK9/Cyclin T1, and 20 μM ATP & 80 μM pS7-CTD peptide for CDK12/CyclinK) prepared in assay buffer were added at 2.5 μL. After thorough mixing, the plates were incubated at room temperature, with CDK1/4/9/12/13 incubated for 120 min and CDK2/5/6/7 incubated for 60 min. ADP-Glo reagents were added at 4 μL, and the plates were incubated at room temperature for 40 min. Kinase detection reagents were added at 8 μL, and the plates were incubated at room temperature for 40 min. Readings were taken using an Envision multimode microplate reader. Data were processed using GraphPad Prism 8, and IC50 was calculated.
(§5) [formula] • X: the logarithm of the compound concentration; Y: % inhibition.

[5] = tested on: OCI-AML-3 leukemia cells; assay: Inhibitory activity against tumor cells, CellTiter-Glo: OCI-AML-3; assay type: cell-based; details: Homo sapiens, 120 h, OCI-AML-3, 5 days treatment
Protocol: as §1, §2, §3

[6] = tested on: HCT-116 colorectal cancer cells; assay: Inhibitory activity against tumor cells, CellTiter-Glo: HCT-116; assay type: cell-based; details: Homo sapiens, 168 h, HCT-116, 7 days treatment
Protocol: as §1, §2
(§6) Palbociclib-resistant cells were constructed on MCF7 parent cells, designated MCF7 Palbo-R, and the culture conditions were consistent with those of the parent cells. All tumor cells were cultured in a cell incubator at 37° C. with 5% CO2. The cells were seeded at corresponding cell densities (600 cells/well for MDA-MB-231; 500 cells/well for MDA-MB-468, PANC-1, and HCT-116; 200 cells/well for MCF7 and HCC1806; 800 cells/well for MCF7 Palbo-R; 3000 cells/well for OCI-AML-3 and MV-4-11) in 384-well plates and cultured overnight in the incubator. On the second day, the cells were treated with compounds. The maximum compound concentration was 10 μM and was 3-fold diluted to obtain 9 concentrations, each tested in duplicate, and the final concentration of DMSO was 0.1%. The cells continued to be cultured in the incubator, with MDA-MB-231, PANC-1, MDA-MB-468, OCI-AML-3, and MV-4-11 being treated with drugs for 5 days and HCC1806, MCF7, MCF7 Palbo-R, and HCT116 being treated with drugs for 7 days. Cell viability was tested using the Celltiter Glo assay kit (Promega), and the testing method was consistent with the operational method provided by the kit. Readings were taken using an Envision multimode microplate reader. Data were processed using GraphPad Prism 8, and IC50 was calculated.
(§7) Y=Bottom+(Top−Bottom)/(1+10^((Log IC50−X)×HillSlope)). Calculation formula: • X: the logarithm of the compound concentration; Y: % inhibition.

[7] = target: CDK7/Cyclin H/MAT1 (Homo sapiens, UniProt P50613); assay: ADP-Glo kinase assay, CDK7; assay type: biochemical; details: for IC50: 80 nM CDK7/Cyclin H/MAT1, 70 μM ATP (Km), MBP, 60 min, read-out: inhibitory activity (IC50, nM) CDK7; for selectivity for CDK2/CDK7 compared with Janssen-01: from IC50 of Table 6, statement in words
Protocol: as §4, §5

[8] = tested on: T47D breast cancer cells; assay: Inhibitory activity against tumor cells, CellTiter-Glo: T47D; assay type: cell-based; details: Homo sapiens
Protocol: as §1, §2, §6, §7

Chain of CDK7/Cyclin H/MAT1 (P50613 whole entry, species assumed): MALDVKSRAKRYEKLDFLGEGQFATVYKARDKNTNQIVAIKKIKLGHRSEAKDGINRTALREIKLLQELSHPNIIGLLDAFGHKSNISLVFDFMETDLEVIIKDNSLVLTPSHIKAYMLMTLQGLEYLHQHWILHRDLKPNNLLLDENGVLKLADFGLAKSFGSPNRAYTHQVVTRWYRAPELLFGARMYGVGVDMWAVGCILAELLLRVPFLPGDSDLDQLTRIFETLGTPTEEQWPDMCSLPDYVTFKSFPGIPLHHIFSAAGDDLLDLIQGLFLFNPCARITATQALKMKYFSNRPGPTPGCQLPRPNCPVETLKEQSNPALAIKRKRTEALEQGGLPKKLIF
Chain of CDK7/Cyclin H/MAT1 (P51946 whole entry partner, species assumed): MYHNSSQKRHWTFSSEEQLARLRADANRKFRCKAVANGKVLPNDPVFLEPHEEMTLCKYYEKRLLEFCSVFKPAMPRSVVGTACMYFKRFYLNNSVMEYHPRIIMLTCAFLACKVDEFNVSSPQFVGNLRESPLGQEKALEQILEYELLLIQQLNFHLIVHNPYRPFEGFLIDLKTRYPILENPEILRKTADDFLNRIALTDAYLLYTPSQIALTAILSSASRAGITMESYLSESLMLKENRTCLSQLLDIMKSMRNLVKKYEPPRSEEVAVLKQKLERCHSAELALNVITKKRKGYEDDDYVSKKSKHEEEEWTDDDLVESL
Chain of CDK7/Cyclin H/MAT1 (P51948 whole entry partner, species assumed): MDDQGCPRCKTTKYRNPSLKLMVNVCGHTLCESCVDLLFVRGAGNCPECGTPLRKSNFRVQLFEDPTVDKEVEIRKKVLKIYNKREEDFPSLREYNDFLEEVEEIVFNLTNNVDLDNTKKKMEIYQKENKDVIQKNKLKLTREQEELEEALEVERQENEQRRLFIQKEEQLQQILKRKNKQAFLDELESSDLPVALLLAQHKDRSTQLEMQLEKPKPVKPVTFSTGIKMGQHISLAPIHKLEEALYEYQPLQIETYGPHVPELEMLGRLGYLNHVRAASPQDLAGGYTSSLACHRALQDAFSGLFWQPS
Chain of CDK9/Cyclin T1 (P50750 whole entry, species assumed): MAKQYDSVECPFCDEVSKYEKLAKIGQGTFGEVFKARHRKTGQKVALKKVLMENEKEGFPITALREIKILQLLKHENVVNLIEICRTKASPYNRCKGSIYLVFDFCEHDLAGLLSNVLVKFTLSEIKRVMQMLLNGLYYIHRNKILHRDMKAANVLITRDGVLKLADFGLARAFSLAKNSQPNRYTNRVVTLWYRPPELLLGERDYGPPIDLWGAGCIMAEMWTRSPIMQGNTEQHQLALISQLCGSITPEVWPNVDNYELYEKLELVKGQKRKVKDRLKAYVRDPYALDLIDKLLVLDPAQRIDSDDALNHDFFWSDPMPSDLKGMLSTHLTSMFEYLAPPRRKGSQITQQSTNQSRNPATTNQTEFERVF
Chain of CDK9/Cyclin T1 (O60563 whole entry partner, species assumed): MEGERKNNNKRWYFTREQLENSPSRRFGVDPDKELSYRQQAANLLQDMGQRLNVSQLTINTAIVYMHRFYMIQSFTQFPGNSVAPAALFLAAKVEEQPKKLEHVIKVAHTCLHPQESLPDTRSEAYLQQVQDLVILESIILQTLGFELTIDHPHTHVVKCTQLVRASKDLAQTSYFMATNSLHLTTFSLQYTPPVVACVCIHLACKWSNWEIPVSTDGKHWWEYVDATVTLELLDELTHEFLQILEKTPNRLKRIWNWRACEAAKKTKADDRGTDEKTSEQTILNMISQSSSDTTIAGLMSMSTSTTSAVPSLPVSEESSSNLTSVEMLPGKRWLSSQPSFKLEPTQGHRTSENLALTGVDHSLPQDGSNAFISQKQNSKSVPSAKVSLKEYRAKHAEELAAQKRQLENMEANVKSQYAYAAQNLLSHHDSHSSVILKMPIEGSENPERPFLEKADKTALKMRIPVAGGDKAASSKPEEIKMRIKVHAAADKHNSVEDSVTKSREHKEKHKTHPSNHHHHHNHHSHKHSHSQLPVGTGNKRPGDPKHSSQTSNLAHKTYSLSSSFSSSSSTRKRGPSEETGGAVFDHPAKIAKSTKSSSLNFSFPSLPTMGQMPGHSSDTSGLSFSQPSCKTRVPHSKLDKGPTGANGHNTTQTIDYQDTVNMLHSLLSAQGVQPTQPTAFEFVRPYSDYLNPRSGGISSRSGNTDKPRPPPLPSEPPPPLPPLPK

| Compound | IC50 [1] [nM] | IC50 [2] [nM] | IC50 [3] [nM] | IC50 [4] [nM] | IC50 [5] [nM] | IC50 [6] [nM] | IC50 [7] [nM] | selectivity for CDK2/CDK7 compared with Janssen-01 [7] | IC50 [8] [nM] |
| --- | --- | --- | --- | --- | --- | --- | --- | --- | --- |
| C[C@@H]1Cc2cnc(NCc3ccn(C)n3)nc2CN1C(=O)N[C@H](CN(C)C)c1ccccc1 [Example 2, (R)—N—((S)-2-(Dimethylamino)-1-phenylethyl)-6-methyl-2-(((1-methyl-TH-pyrazol-3-yl)methyl)amino)-5,8-dihydropyrido[3,4-d]pyrimidine-7(6H)-carboxamide] | 1580 | 28.6 | 40.6 | 2330 | 33.2 | 75.6 | 21.9 | significantly better selectivity for CDK2/CDK7 than Janssen-01 | 31 |
| C[C@H](Nc1ncc2c(n1)CN(C(=O)N[C@H](CN(C)C)c1ccccc1)[C@H](C)C2)c1ccccn1 [Example 6, (R)—N—((S)-2-(Dimethylamino)-1-phenylethyl)-6-methyl-2-(((S)-1-(pyridin-2-yl)ethyl)amino)-5,8-dihydropyrido[3,4-d]pyrimidine-7(6H)-carboxamide] | 4270 | 23.7 | 24.6 | 1900 | 33.4 | 46.9 | 28.4 | significantly better selectivity for CDK2/CDK7 than Janssen-01 | 22.2 |
